Measurements: ChEMBL document CHEMBL4311969, “Polygala tenuifolia-Acori tatarinowii herbal pair as an inspiration for substituted cinnamic α-asaronol esters: Design, synthesis, anticonvulsant activity, and inhibition of lactate dehydrogenase study” (Eur J Med Chem, 2019)
Values joined by “and” are separate entries in the source; they are usually repeats but may differ in a detail not shown here. Equal values may be shown once. Active and inactive are the calls of the source. No cut-off for these calls is given here.

What was measured:
Mus musculus [1] = test: Anticonvulsant activity in Kunming mouse assessed as reduction in ScPTZ-induced seizure at 300 mg/kg, ip administered 0.25 to 2 hrs before ScPTZ stimulation relative to control; assay type: functional; design: scale not given: the % may be the effect or the level left
Mus musculus [2] = test: Anticonvulsant activity in Kunming mouse assessed as reduction in ScPTZ-induced clonic seizure at 100 mg/kg, ip administered 0.5 hrs before ScPTZ stimulation relative to control; assay type: functional; design: scale not given: the % may be the effect or the level left
[3] = Neurotoxicity against ip dosed Kunming mouse assessed as time remained in rod measured at 0.5 hrs by rotarod test; assay type: toxicity, organism-based; conditions: in vivo
[4] = (§1) Protective index, ratio of TD50 for neurotoxicity against ip dosed Kunming mouse assessed as time remained in rod measured at 0.5 hrs by rotarod test to ED50 for anticonvulsant activity in ip dosed Kunming mouse assessed as reduction in ScPTZ-induced seizure administered 0.5 hrs before ScPTZ stimulation; assay type: toxicity, organism-based; conditions: in vivo, read-out: PI
Mus musculus [5] = test: Anticonvulsant activity in Kunming mouse assessed as reduction in Sc3-MP-induced seizure ip dosed measured at 0.5 hrs before Sc3-MP stimulation; assay type: functional
Mus musculus [6] = test: Anticonvulsant activity in ip dosed Kunming mouse assessed as reduction in ScPTZ-induced seizure administered 0.5 hrs before ScPTZ stimulation; assay type: functional
Mus musculus [7] = test: Anticonvulsant activity in Kunming mouse assessed as reduction in Sc3-MP-induced clonic seizure rate at 300 mg/kg, ip administered 0.5 hrs before Sc3-MP stimulation relative to control; assay type: functional; design: scale not given: the % may be the effect or the level left
Mus musculus [8] = test: Anticonvulsant activity in Kunming mouse assessed as reduction in Sc3-MP-induced seizure at 300 mg/kg, ip administered 0.25 to 2 hrs before Sc3-MP stimulation relative to control; assay type: functional; design: scale not given: the % may be the effect or the level left
Mus musculus [9] = test: Anticonvulsant activity in Kunming mouse assessed as MES-induced hind limb extension at 100 mg/kg, ip administered 0. 5 to 2 hrs before MES stimulation; assay type: functional, organism-based
Mus musculus [10] = test: Anticonvulsant activity in Kunming mouse assessed as MES-induced hind limb extension at 50 mg/kg, ip administered 0.5 and 2 hrs before MES stimulation relative to control; assay type: functional
Mus musculus [11] = test: […] activity in ip dosed Kunming mouse assessed as reduction in formalin-induced paw licking administered 0.5 hrs before formalin stimulation; assay type: functional
[12] = as §1, with “Sc3-MP-induced” for “ScPTZ-induced”, “Sc3-MP” for “ScPTZ”; assay type: toxicity, organism-based; conditions: in vivo, read-out: PI
[13] = as §1, with “formalin-induced paw licking” for “ScPTZ-induced seizure”, “formalin” for “ScPTZ”; assay type: toxicity, organism-based; conditions: in vivo, read-out: PI
Mus musculus [14] = test: Anticonvulsant activity in Kunming mouse assessed as MES-induced hind limb extension at 100 mg/kg, ip administered 0. 5 to 4 hrs before MES stimulation relative to control; assay type: functional
Mus musculus [15] = test: Anticonvulsant activity in Kunming mouse assessed as reduction in ScPTZ-induced tonic seizure rate at 100 mg/kg, ip administered 0.5 hrs before ScPTZ stimulation relative to control; assay type: functional; design: scale not given: the % may be the effect or the level left
Mus musculus [16] = test: Anticonvulsant activity in Kunming mouse assessed as reduction in ScPTZ-induced seizure at 100 mg/kg, ip administered 0.25 to 2 hrs before ScPTZ stimulation relative to control; assay type: functional
Mus musculus [17] = test: Anticonvulsant activity in Kunming mouse assessed as reduction in ScPTZ-induced tonic seizure rate at 300 mg/kg, ip administered 0.5 hrs before ScPTZ stimulation relative to control; assay type: functional; design: scale not given: the % may be the effect or the level left
Mus musculus [18] = test: Anticonvulsant activity in ip dosed Kunming mouse assessed as MES-induced hind limb extension administered 0.5 hrs before MES stimulation; assay type: functional
Mus musculus [19] = test: Anticonvulsant activity in Kunming mouse assessed as reduction in ScPTZ-induced clonic seizure at 300 mg/kg, ip administered 0.5 hrs before ScPTZ stimulation relative to control; assay type: functional; design: scale not given: the % may be the effect or the level left
[20] = Protective index, ratio of TD50 for neurotoxicity against ip dosed Kunming mouse assessed as time remained in rod measured at 0.5 hrs by rotarod test to ED50 for anticonvulsant activity in ip dosed Kunming mouse assessed as MES-induced hind limb extension administered 0.5 hrs; assay type: toxicity, organism-based; conditions: in vivo, read-out: PI
Mus musculus [21] = test: Anticonvulsant activity in Kunming mouse assessed as reduction in Sc3-MP-induced tonic seizure rate at 300 mg/kg, ip administered 0.5 hrs before Sc3-MP stimulation relative to control; assay type: functional; design: scale not given: the % may be the effect or the level left
[22] = Neurotoxicity against Kunming mouse assessed as time remained in rod at 100 mg/kg, ip administered 0.5 to 2 hrs by rotarod test; assay type: toxicity, organism-based; conditions: in vivo
Mus musculus [23] = test: Anticonvulsant activity in Kunming mouse assessed as MES-induced hind limb extension at 50 mg/kg, ip administered 0.5 to 4 hrs before MES stimulation relative to control; assay type: functional
Homo sapiens [24] = organism: Homo sapiens; test: Inhibition of human LDH5 at 0.5 mM using sodium pyruvate as substrate by UV-VIS spectrophotometry method relative to control
Homo sapiens [25] = organism: Homo sapiens; test: Inhibition of human LDH1 at 0.5 mM using sodium pyruvate as substrate by UV-VIS spectrophotometry method relative to control
Mus musculus [26] = test: Anticonvulsant activity in Kunming mouse assessed as reduction in ScPTZ-induced seizure at 100 mg/kg, ip administered 1 hr relative to control; assay type: functional; design: scale not given: the % may be the effect or the level left
Mus musculus [27] = test: Anticonvulsant activity in Kunming mouse assessed as reduction in ScPTZ-induced seizure at 100 mg/kg, ip administered 0.5 hrs before ScPTZ stimulation relative to control; assay type: functional; design: scale not given: the % may be the effect or the level left
Mus musculus [28] = test: Anticonvulsant activity in Kunming mouse assessed as MES-induced hind limb extension at 100 mg/kg, ip administered 3 hrs before MES stimulation; assay type: functional, organism-based
Homo sapiens [29] = organism: Homo sapiens; test: Inhibition of human LDH5 at 2 mM using sodium pyruvate as substrate by UV-VIS spectrophotometry method relative to control
Homo sapiens [30] = organism: Homo sapiens; test: Inhibition of human LDH1 at 2 mM using sodium pyruvate as substrate by UV-VIS spectrophotometry method relative to control
[31] = biological target: GABA-A receptor; alpha-1/beta-2/gamma-2 (Homo sapiens) (UniProt P14867+P47870+P18507); test: Agonist activity at GABA alpha1beta2gamma2 receptor in human HEK293T at 3.3 to 300 uM at -50 mV holding potential by whole cell voltage clamp assay relative to control; assay type: protein-complex assay
[32] = biological target: T1, GABA-A receptor; alpha-1/beta-2/gamma-2 (Homo sapiens, UniProt P14867+P18507+P47870); test: Agonist activity at GABA alpha1beta2gamma2 receptor in human HEK293T at -50 mV holding potential by whole cell voltage clamp assay; assay type: protein-complex assay
T1 sequence (P14867 whole entry): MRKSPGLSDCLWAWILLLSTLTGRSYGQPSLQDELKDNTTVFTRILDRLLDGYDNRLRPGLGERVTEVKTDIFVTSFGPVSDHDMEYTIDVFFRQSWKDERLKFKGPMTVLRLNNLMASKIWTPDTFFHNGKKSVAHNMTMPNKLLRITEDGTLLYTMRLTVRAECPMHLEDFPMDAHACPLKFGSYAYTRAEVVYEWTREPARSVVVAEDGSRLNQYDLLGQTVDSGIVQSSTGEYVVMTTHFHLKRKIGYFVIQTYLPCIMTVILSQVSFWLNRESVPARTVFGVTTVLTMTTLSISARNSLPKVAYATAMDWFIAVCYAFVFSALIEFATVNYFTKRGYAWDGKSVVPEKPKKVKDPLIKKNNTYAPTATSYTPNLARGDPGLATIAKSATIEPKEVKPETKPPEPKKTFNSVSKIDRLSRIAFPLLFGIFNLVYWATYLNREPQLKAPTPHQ
T1 sequence (P47870 whole entry): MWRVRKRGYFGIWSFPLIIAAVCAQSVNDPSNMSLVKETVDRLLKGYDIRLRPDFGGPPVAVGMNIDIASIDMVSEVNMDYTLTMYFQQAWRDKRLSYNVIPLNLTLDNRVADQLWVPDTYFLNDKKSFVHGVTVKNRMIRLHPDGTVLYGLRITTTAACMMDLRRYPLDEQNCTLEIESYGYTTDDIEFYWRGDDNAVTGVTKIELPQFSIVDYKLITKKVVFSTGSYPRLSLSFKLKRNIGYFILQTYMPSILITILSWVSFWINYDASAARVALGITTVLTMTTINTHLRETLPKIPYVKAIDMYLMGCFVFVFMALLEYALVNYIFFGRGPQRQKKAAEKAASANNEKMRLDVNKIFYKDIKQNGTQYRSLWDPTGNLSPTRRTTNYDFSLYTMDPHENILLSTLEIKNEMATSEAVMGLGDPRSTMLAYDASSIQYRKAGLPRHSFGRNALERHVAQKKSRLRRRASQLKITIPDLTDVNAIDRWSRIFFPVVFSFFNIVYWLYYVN
T1 sequence (P18507 whole entry): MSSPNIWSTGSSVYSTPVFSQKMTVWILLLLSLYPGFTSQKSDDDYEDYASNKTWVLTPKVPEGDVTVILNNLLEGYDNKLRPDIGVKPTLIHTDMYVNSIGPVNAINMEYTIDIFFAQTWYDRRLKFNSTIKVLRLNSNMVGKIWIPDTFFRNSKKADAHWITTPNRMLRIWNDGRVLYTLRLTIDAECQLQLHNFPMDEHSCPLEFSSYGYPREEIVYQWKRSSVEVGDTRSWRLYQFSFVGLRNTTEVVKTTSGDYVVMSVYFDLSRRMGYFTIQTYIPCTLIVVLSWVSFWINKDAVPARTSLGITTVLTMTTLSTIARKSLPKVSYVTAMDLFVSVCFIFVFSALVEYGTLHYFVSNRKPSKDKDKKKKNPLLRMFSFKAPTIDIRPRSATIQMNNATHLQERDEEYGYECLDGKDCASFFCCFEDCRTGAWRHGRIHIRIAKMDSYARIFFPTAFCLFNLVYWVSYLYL

Row | Compound | Activity (Mus musculus [1]) [%] | Activity (Mus musculus [2]) [%] | TD50 at 0.5 h [3] | selectivity ratio at 0.5 h [4] | ED50 (Mus musculus [5]) | ED50 (Mus musculus [6]) | Activity (Mus musculus [7]) [%] | Activity (Mus musculus [8]) [%] | Activity (Mus musculus [9]) | ED50 (Mus musculus [11]) | selectivity ratio at 0.5 h [12] | selectivity ratio at 0.5 h [13] | Activity (Mus musculus [14]) | Activity (Mus musculus [15]) [%] | Activity (Mus musculus [16]) | Activity (Mus musculus [17]) [%] | ED50 (Mus musculus [18]) | Activity (Mus musculus [19]) [%] | selectivity ratio at 0.5 h [20] | Activity [22] | other results
1 | COc1cc(OC)c(OC)cc1/C=C/COC(=O)/C=C/c1cc(OC)c(OC)cc1OC | 50 | 100 | > 2250 µmol/kg and > 1000 mg/kg | 5 | > 300 mg/kg and > 675 µmol/kg | > 200 mg/kg and 450 µmol/kg to 675 µmol/kg | 100 | 0 | Active | 180 to 225 µmol/kg | 3.3 | 12.5 | 25 - 100% | 100 | inactive | 25 | 165 µmol/kg and 73.5 mg/kg | 100 | > 13.6 | Non-Toxic | Activity (Mus musculus [10]): inactive; Activity (Mus musculus [21]): 75%
2 | COc1ccc(/C=C/C(=O)OC/C=C/c2cc(OC)c(OC)cc2OC)cc1 | 50 | 100 | > 1000 mg/kg and > 2600 µmol/kg | > 4.1 | > 300 mg/kg and > 780 µmol/kg | 244 mg/kg and 634 µmol/kg | 100 | 0 | Active | 122 mg/kg and 317 µmol/kg | 3.3 | > 8.2 | 25 - 100% | 100 | inactive | 0 | 70.6 mg/kg and 184 µmol/kg | 100 | > 14.2 | Non-Toxic | Activity (Mus musculus [23]): 50%; inhibition (Homo sapiens [24]): inactive; inhibition (Homo sapiens [25]): inactive; Activity (Mus musculus [26]): 75%; Activity (Mus musculus [21]): 100%; Activity (Mus musculus [27]): 100%; Activity (Mus musculus [28]): Active
3 | CC(C)(C)C(O)/C=C/c1ccc2c(c1)OCO2 (configuration not stated) [STIRIPENTOL] |  |  |  |  |  |  |  |  | Active |  |  |  |  |  |  |  |  |  |  | Non-Toxic | inhibition (Homo sapiens [24]): inactive; inhibition (Homo sapiens [29]): 7 to 10%; inhibition (Homo sapiens [25]): inactive; inhibition (Homo sapiens [30]): 7 to 10%; %max [31]: 310%; EC50 [32]: 46 µM
